Source: patent US7625580B1, “Semi-interpenetrating or interpenetrating polymer networks for drug delivery and tissue engineering” (Massachusetts Institute of Technology, priority 2000, dated 2009)

Test system: bovine chondroycytes
Test: Biocompatibility of the photoinitiator, tested without polymer, on chondrocytes before and after UVA exposure
Type: cell-based
Conditions: for cell damage (morphology) after light exposure: UVA 3 minutes at 1-3 mW/cm^2
Excerpt: Although the initiator PHK is approved for dental applications, the initiator was examined without the presence of polymer to ascertain the toxicity of the radical produced to initiate a photopolymerization. The PEOD is very reactive towards the radical so the lack of polymer would make all radicals available to damage cells (a worst case scenario). Three initiator concentrations (0.1, 0.05 and 0.01% (w/w)) were examined.
Chondrocyte isolated from calf shoulders were maintained ex vivo in cell culture medium (DMEM) at 37° C. and 5% CO2. Cells were passaged approximately once a week. Approximately 10,000 cells per well in an 8-well tissue culture plate were seeded. 1-hydroxycylcohexyl-phenyl-ketone (HPK) was added to DMEM to reach 0.1, 0.05 and 0.01% (w/w) concentrations. The cells were incubated for 24 hours in the present of the initiator to examine possible acute cell toxicity. The cells were then exposed to UVA radiation (2 mW/cm^2) for 3 minutes to activate the photoactive initiator.
To determine the effect of photoactive initiator concentration on cells before exposure to light, cells were exposed to a concentration of 0% (w/w), 0.1% (w/w), 0.05% (w/w), and 0.01% (w/w).
The effect of photoactive initiator concentration on cells after exposure to light for four days was determined by exposing cells to a concentration of 0% (w/w), 0.1% (w/w), 0.05% (w/w), and 0.01% (w/w). The cells were compared morphologically and in relation to cell proliferation for 4 days.
Further analysis was made between controls which were a) not exposed to initiator or UVA, b) cells exposed to UVA only and c) cells exposed to UVA in the presence of 0.01% PHK. The effect of photoactive initiator on cells when exposed to no light or photoactive initiator, light only, 0.01% light and initiator, and 24 hours after light exposure was determined.

`O=C(c1ccccc1)C1(O)CCCCC1` [initiator, 1-hydroxycylcohexyl-phenyl-ketone] was tested, and the “effect on proliferation and morphology” value (0.01% PHK with UVA versus no-treatment and UVA-only controls, 24 hours after light exposure) was “does not appear to alter proliferation and morphology”, the “toxicity to cells before exposure to light” value (0.1, 0.05 and 0.01% (w/w), 24 hours incubation, no light) was “does not appear to be toxic” and the “cell damage (morphology) after light exposure” value (“cell damage (morphology)” below) (initiator 0.01% versus control) was “no damage”. For the same molecule, the “cell damage (morphology)” value (initiator 0.05%) was “Variable damage” and the “cell damage (morphology)” value (initiator 0.1%) was “extensive cell death”.
